Here are results for eleven compounds from patent publication US20220259235A1, “EGFR Inhibitor, Composition, and Preparation Method Therefor” (BETTA PHARMACEUTICALS CO., LTD, priority 2019, published 2022).

What is called IC50 is the concentration at which inhibition is half-maximal.

The target of one experiment is Ba/F3-L858R/T790M/C797S (Homo sapiens, UniProt P00533, T790M/C797S/L858R, cells depend on it). Put plainly: Ba/F3-L858R/T790M/C797S cell proliferation assay (CellTiter Glo, 72 h). The experiment is classed as cell-based. To be noted: CTG, class symbols, read-out: BaF3 L858R/T790M/C797S IC50. The procedure: (§1) Cell line: Ba/F3 cells with stable overexpression of Δ19del/T790M/C797S or L858R/T790M/C797S mutant genes, named Ba/F3-Δ19del/T790M/C797S and Ba/F3-L858R/T790M/C797S, and A431 EGFR wild-type cell line.
Chain of Ba/F3-L858R/T790M/C797S (P00533 whole entry T790M/C797S/L858R): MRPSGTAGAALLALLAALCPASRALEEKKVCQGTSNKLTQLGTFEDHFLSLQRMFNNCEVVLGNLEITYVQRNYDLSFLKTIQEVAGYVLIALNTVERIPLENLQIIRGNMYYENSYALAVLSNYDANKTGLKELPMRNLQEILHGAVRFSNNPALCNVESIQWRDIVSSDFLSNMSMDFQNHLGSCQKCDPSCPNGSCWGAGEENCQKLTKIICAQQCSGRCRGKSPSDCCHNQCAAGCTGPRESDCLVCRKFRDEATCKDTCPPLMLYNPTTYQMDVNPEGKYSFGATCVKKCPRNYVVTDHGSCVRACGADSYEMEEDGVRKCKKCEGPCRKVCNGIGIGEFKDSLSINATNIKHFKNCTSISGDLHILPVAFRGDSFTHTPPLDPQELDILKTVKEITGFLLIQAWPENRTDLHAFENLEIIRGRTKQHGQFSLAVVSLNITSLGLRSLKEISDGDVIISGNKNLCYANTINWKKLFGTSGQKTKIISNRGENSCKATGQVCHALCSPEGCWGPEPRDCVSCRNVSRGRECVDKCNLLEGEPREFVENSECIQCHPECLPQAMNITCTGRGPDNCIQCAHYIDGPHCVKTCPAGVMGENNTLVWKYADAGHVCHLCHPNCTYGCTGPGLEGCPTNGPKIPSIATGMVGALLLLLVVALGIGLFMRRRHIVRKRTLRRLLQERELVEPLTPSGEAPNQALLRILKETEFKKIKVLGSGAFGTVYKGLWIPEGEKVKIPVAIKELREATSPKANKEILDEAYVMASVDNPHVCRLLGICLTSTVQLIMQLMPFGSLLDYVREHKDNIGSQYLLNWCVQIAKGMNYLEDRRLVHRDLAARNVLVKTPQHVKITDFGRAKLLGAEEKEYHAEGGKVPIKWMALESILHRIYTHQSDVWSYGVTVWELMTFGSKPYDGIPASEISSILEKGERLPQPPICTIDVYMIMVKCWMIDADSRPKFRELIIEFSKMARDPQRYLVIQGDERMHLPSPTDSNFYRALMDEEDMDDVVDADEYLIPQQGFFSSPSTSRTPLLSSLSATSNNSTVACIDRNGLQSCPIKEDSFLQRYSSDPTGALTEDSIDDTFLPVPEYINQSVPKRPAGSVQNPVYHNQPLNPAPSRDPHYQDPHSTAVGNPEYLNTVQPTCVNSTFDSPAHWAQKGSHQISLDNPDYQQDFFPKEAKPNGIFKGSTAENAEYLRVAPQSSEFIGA
(§2) RPMI 1640 and 10% FBS and 1% PS; _EM, 10% PBS and 1% PS
(§3) a) Dilute the test compound (20 mM stock solution) to 10 mM with 100% DMSO as the starting concentration, and then serially dilute 3 times with a “9+0” concentration in 96-well dilution plate (Cat #P-05525, Labcyte);
(§4) b) Dilute compound solution thereof to 1:100 in medium to prepare 10-fold working solution;
(§5) a) Centrifuge the growth cells in logarithmic phase at 1000 rpm for 5 minutes, resuspend the cells in culture medium, and then count the cells;
(§6) b) Inoculate the cells into a 96-well cell culture plate with a density of 2000 cells/well;
(§7) a) The compound prepared in Step 2 was added to a cell plate with 15 μL per well at final concentrations of 1000, 333, 111.1, 37, 12.3, 4.1, 1.4, 0.5, 0.2, and 0 nM. The final concentration of DMSO was 0.1%. The blank control well is with medium (0.1% DMSO).
(§8) b) Incubate cells in an incubatorother 72 hours;
(§9) a) Take out the 96-well cell culture plate and add 50 μl CTG reagent (CellTiter Glo kit, promega, Cat #G7573);
(§10) b) Shake the plate for 2 minutes and let cool at room temperature for 10 minutes,
(§11) c) Read luminous signal value with Perkin Elmer reader.
(§12) Analysis of Experimental Data
(§13) The data were analyzed by GraphPad Prism 6.0 software to obtain the fitting curve of compound activity.
(§14) Fining compound IC50 from nonlinear regression equation:
(§15) Y=Min+(Max−Min)/(1+10^((LogIC50−X)*slope));
(§16) X: Logarithm of compound concentration; Y: luminous signal
(§17) As illustrated in examples, IC50 value is within the following range for the compound of the present invention: “A” represents “IC50≤50 nM”; “B” represents “50 nM<IC50<100 nM”.
(In general: In ATP-based viability assays light output follows the ATP content of the culture.)

The target of another experiment is Ba/F3-Δ19del/T790M/C797S (Homo sapiens, UniProt P00533, T790M/C797S, cells depend on it, form not given). Put plainly: Ba/F3-Δ19del/T790M/C797S cell proliferation assay (CellTiter Glo, 72 h). The experiment is classed as cell-based. To be noted: CTG, class symbols, read-out: BaF3 Δ19del/T790M/C797S IC50. As for the experimental part: as §1, §2, §3, §4, §5, §6, §7, §8, §9, §10, §11, §12, §13, §14, §15, §16, §17
Chain of Ba/F3-Δ19del/T790M/C797S (P00533 with tags, fused parts or gaps DEL746-750/T790M/C797S, form open): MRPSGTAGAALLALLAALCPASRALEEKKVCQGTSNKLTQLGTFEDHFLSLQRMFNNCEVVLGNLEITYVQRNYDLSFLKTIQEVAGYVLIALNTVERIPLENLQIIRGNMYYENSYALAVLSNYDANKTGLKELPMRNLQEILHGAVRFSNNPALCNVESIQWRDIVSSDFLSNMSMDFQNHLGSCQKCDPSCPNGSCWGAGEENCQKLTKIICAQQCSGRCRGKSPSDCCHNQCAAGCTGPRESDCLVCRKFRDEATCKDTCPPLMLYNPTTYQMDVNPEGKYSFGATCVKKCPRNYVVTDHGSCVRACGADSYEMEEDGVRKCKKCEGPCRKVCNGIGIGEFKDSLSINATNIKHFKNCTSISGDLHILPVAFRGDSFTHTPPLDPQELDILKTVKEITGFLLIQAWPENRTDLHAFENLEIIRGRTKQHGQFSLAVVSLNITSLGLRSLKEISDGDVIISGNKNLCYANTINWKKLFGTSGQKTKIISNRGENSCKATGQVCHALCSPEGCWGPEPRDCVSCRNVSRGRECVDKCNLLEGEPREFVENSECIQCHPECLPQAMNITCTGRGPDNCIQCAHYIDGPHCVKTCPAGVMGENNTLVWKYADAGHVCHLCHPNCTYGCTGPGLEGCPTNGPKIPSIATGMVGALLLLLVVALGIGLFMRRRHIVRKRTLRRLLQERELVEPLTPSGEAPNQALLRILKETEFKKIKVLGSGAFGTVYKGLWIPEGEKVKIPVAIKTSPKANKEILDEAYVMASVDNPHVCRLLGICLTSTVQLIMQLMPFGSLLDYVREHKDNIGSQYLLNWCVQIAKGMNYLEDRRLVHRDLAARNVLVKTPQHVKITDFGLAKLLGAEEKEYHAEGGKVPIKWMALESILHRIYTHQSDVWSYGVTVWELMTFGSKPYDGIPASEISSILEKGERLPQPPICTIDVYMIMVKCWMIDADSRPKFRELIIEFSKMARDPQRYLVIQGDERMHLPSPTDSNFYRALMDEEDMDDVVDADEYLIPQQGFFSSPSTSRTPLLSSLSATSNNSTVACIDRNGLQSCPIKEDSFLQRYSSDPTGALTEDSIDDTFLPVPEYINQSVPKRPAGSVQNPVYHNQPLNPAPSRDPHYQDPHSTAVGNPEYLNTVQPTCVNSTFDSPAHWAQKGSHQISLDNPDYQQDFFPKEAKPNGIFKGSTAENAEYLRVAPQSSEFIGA

A further experiment concerns the target EGFR Δ19del/T790M/C797S (Homo sapiens, UniProt P00533, T790M/C797S, form not given). Nature of the experiment: EGFR Δ19del/T790M/C797S kinase test (mobility shift, Caliper EZ Reader). The experiment is classed as biochemical. To be noted: kinase enzymatic activity. The procedure:
Mobility variation analysis was performed to determine the affinity of the compound for EGFRΔ19del/T790M/C797S. The enzymatic reaction scheme is as follows:
1. Prepare 1* kinase buffer as follows:
2. Preparation of compound concentration gradient: The test compound was tested with an initial concentration of 3000 nM or 100 nM, diluted in a 384 source plate to a 100% DMSO solution with 100-fold final concentration, and the compound is 3-fold diluted with Precision to 10 concentrations. A dispenser Echo 550 was used to transfer 250 nL 100-fold final concentration of the compound to the target plate OptiPlate-384F.
3. Prepare 2.5-fold final concentration of kinase solution with 1×Kinase buffer;
4. Add 10 μL of 2.5-fold final concentration of kinase solution to the compound well and the positive control well; add 10 μL of 1×Kinase buffer to the negative control well.
5. Centrifuge at 1000 rpm for 30 seconds, shake the reaction plate for well mixation, and then incubate at room temperature for 10 minutes.
6. Prepare a mixture of ATP and Kinase substrate at 5/3-fold final concentration with 1×Kinase buffer.
7. Add 15 μL mixture of 5/3-fold final concentration of ATP and substrate to start reaction.
8. Centrifuge the 384-well plate at 1000 rpm for 30 seconds, shake it well and then incubate it at room temperature for corresponding time.
9. Add 30 μL of stop detection solution to stop the kinase reaction, centrifuge at 1000 rpm for 30 seconds, shake it well.
10. Read conversion rate with Caliper EZ Reader.
% Inhibition=((Conversion%_max−Conversion%_sample)/(Conversion%_max−Conversion%_min))*100
Wherein: Conversion%_sample is the sample conversion rate reading; Conversion%_min: Mean value of negative control wells, representing the conversion rate reading of wells without enzymatic activity; Conversion%_max: Mean value of positive control wells, representing the conversion rate reading of wells without compound inhibition.
The dose-effect curve was fitted with concentration log value as X-axis and percentage inhibition rate as Y-axis. Log (inhibitor) vs. Response—Variable Slope of GraphPad Prism 5 was used to fit the dose-effect curve to obtain IC50 value of enzymatic activity for each compound.
The calculation formula is as Y=Bottom (Top−Bottom)/(1+10^((LogIC50−X)*HillSlope)).
As illustrated in examples, IC50 value is within the following range for the compound of the present invention: “A” represents “IC50≤1nM”; “B” represents “1 nM<IC50≤100nM”.

Some results are limits rather than exact numbers.

Chain of EGFR Δ19del/T790M/C797S (P00533 with tags, fused parts or gaps DEL746-750/T790M/C797S, form open): as above

In the case of `COc1cc(N2CCC(N3CCCC3)CC2)c(-c2cnn(C)c2)cc1Nc1ncc(Cl)c(Nc2ccc(C)c(C)c2P(C)(C)=O)n1` [Compound 6], the GI50 on Ba/F3-L858R/T790M/C797S and on Ba/F3-Δ19del/T790M/C797S was at most 50 nM in each case. In addition, the IC50 on EGFR Δ19del/T790M/C797S (class symbols) was at most 1 nM.

Turning to `COc1cc(N2CCC3(CC2)CN(C)C3)c(-c2cnn(C)c2)cc1Nc1ncc(Cl)c(Nc2ccc(C)c(C)c2P(C)(C)=O)n1` [Compound 7], the GI50 at Ba/F3-L858R/T790M/C797S and at Ba/F3-Δ19del/T790M/C797S was 50 to 100 nM throughout. Moreover, the IC50 at EGFR Δ19del/T790M/C797S (class symbols) lay within 1 to 100 nM.

Turning to `COc1cc(N2CCN3CCCC[C@@H]3C2)c(-c2cnn(C)c2)cc1Nc1ncc(Cl)c(Nc2ccc(C)c(C)c2P(C)(C)=O)n1` [Compound 8, (R)-(6-((5-chloro-2-((2-methoxy-5-(1-methyl-1H-pyrazol-4-yl)-4-(octahydro-2hydro-Pyridine[1,2-a]pyrazine-2-yl)phenyl)amino)pyrimidine-4-yl)amino)-2,3-dimethylphenyl)dimethylphosphine oxide], the GI50 on Ba/F3-L858R/T790M/C797S and on Ba/F3-Δ19del/T790M/C797S was at most 50 nM each time. Also, the IC50 on EGFR Δ19del/T790M/C797S (class symbols) is at most 1 nM.

With `COc1cc(N2CCC(N3CCN(C)CC3)CC2)c(-c2cnn(C)c2)cc1Nc1ncc(Br)c(Nc2ccc3nccnc3c2P(C)(C)=O)n1` [Compound 10], the GI50 on Ba/F3-L858R/T790M/C797S and on Ba/F3-Δ19del/T790M/C797S was at most 50 nM each time. Moreover, on EGFR Δ19del/T790M/C797S (class symbols), the IC50 was at most 1 nM.

`COc1cc(N2CCC(N3CCCCC3)CC2)c(-c2cnn(C)c2)cc1Nc1ncc(Br)c(Nc2ccc3nccnc3c2P(C)(C)=O)n1` [Compound 11, (6-((2-((4-([1,4′-Bipiperidine]-1′-yl)-2-methoxy-5-(1-methyl-1H-pyrazole-4-yl)phenyl)amino)-5-bromopyrimidin-4-yl)amino)quinoxalin-5-yl)dimethylphosphine oxide]: the GI50 on Ba/F3-L858R/T790M/C797S and on Ba/F3-Δ19del/T790M/C797S was at most 50 nM each time. The IC50 on EGFR Δ19del/T790M/C797S (class symbols) is at most 1 nM.

Regarding `COc1cc(N2CCC(N3CCN(C)CC3)CC2)c(-c2cnn(C)c2)cc1Nc1ncc(Br)c(Nc2ccc(C3CC3)c(C)c2P(C)(C)=O)n1` [Compound 12], the GI50 at Ba/F3-L858R/T790M/C797S and on Ba/F3-Δ19del/T790M/C797S was at most 50 nM throughout. Moreover, the IC50 on EGFR Δ19del/T790M/C797S (class symbols) was at most 1 nM.

As to `COc1cc(N2CCC(N3CCCCC3)CC2)c(-c2cnn(C)c2)cc1Nc1ncc(Br)c(Nc2ccc(C3CC3)c(C)c2P(C)(C)=O)n1` [Compound 13], the GI50 at Ba/F3-L858R/T790M/C797S and at Ba/F3-Δ19del/T790M/C797S was at most 50 nM throughout. Moreover, the IC50 on EGFR Δ19del/T790M/C797S (class symbols) is at most 1 nM.

As for `COc1cc(N2CCC(N3CCN(C)CC3)CC2)c(-c2cnn(C)c2)cc1Nc1ncc(Br)c(Nc2ccc(C)c(C)c2P(C)(C)=O)n1` [Compound 14, (6-((5-Bromo-2-((2-methoxy-5-(1-methyl-1h-pyrazol-4-yl)-4-(4-(4-methylpiperazine-1-yl)piperidine-1-yl)phenyl)amino)pyrimidine-4-yl)amino)-2,3-dimethylphenyl)dimethylphosphine oxide], the GI50 on Ba/F3-L858R/T790M/C797S and at Ba/F3-Δ19del/T790M/C797S was at most 50 nM each time. On EGFR Δ19del/T790M/C797S (class symbols), the IC50 was at most 1 nM.

Consider `COc1cc(N2CCC(N3CCCCC3)CC2)c(-c2cnn(C)c2)cc1Nc1ncc(Br)c(Nc2ccc(C)c(C)c2P(C)(C)=O)n1` [Compound 15, (6-((2-((4-([1,4′-Bipiperidine]-1′-yl)-2-methoxy-5-(1-methyl-1H-pyrazole-4-yl)phenyl)amino)-5-bromopyrimidine-4-yl)amino)-2,3-dimethylphenyl)dimethylphosphine oxide], for which the GI50 at Ba/F3-L858R/T790M/C797S and at Ba/F3-Δ19del/T790M/C797S was at most 50 nM in each case. Also, the IC50 at EGFR Δ19del/T790M/C797S (class symbols) is at most 1 nM.

As for `CCn1cc(-c2cc(Nc3nccc(Nc4ccc(C)c(C)c4P(C)(C)=O)n3)c(OC)cc2N2CCOCC2)cn1` [Compound 23, (6-(2-(5-((1-Ethyl-1hydro-pyrazol-4-yl)-2-methoxy-4-morpholinophenyl)amino)pyrimidine-4-amino)-2,3dimethylphenyl) dimethylphosphine oxide], the IC50 on EGFR Δ19del/T790M/C797S (numeric values) stood at 1.4 nM.

For the compound `CCn1cc(-c2cc(Nc3ncc(Br)c(Nc4ccc5nc(C6CC6)ccc5c4P(C)(C)=O)n3)c(OC)cc2N2CCOCC2)cn1` [Compound 24], the IC50 at EGFR Δ19del/T790M/C797S (numeric values) came out at 17 nM.
